Converted amounts (≈) assume the structure as drawn.
How the values were obtained:
Format in all cases: cell-based
[1] = system: Staphylococcus aureus SG 511; experiment: Minimum inhibition concentration (MIC), Table 5; conditions: Staphylococcus aureus, SG511, Germ: Staphylococcus aureus SG 511; read-out: Minimum inhibition concentration (MIC)
Source text: (§1) Minimum inhibition concentration (MIC) in γ/ml
Germ: Staphylococcus aureus SG 511

Streptococcus pyogenes A = experiment: Minimum inhibition concentration (MIC), Table 3; conditions: Germ: Streptococcus pyogenes A; read-out: Minimum inhibition concentration MIC
Source text: Minimum inhibition concentration MIC in γ/ml
Germ: Streptococcus pyogenes A

[2] = system: Staphylococcus aureus 285; experiment: Minimum inhibition concentration (MIC), Table 1; conditions: Staphylococcus aureus, 285, Germ: Staphylococcus aureus 285; read-out: Minimum inhibition concentration (MIC)
Source text: as §1
Germ: Staphylococcus aureus 285

Streptococcus D = experiment: Minimum inhibition concentration (MIC), Table 4; conditions: Streptococcus, Germ: Streptococcus D; read-out: Minimum inhibition concentration (MIC)
Source text: as §1

MIC [1] [µg/mL]	MIC (Streptococcus pyogenes A) [ng/mL]	MIC [2] [µg/mL]	MIC (Streptococcus D) [µg/mL]	Structure (SMILES)
0.0625 to 0.078 (≈ 0.11 to 0.137 µM)	0.391 to 7.8 (≈ 0.000688 to 0.0137 µM)	0.156 to 0.391 (≈ 0.274 to 0.688 µM)	10 to 50 (≈ 17.6 to 87.9 µM)	O=C(Cc1ccc(C2=NCCCN2)cc1)NC1C(=O)N2C(C(=O)O)=C(CSc3ccc([N+](=O)[O-])cn3)CSC12 (stereo not drawn) [Example 105, 3-[(5-nitropyridine-2-yl)-thiomethyl]-7-[4-(1,4,5,6-tetrahydropyrimide-2-yl)-phenylacetamido]-Δ3-cephem-4-carboxylic acid]
0.0196 to 0.0391 (≈ 0.0346 to 0.069 µM)	0.391 to 7.8 (≈ 0.00069 to 0.0138 µM)	0.156 to 0.391 (≈ 0.275 to 0.69 µM)	10 to 50 (≈ 17.6 to 88.2 µM)	N=C(N)c1ccc(CC(=O)NC2C(=O)N3C(C(=O)O)=C(CSc4nnc(-c5ccccc5)s4)CSC23)cc1 (stereo not drawn) [Example 57, 3-[(5-phenyl-1,3,4-thiadiazole-2-yl)-thiomethyl]-7-(4-amidinophenylacetamido)-Δ3-cephem-4-carboxylic acid]
0.0625 to 0.078 (≈ 0.103 to 0.129 µM)	0.391 to 7.8 (≈ 0.000644 to 0.0129 µM)	0.156 to 0.391 (≈ 0.257 to 0.644 µM)	10 to 50 (≈ 16.5 to 82.4 µM)	O=C(Cc1ccc(C2=NCCCN2)cc1)NC1C(=O)N2C(C(=O)O)=C(CSc3nnc(-c4ccccc4)s3)CSC12 (stereo not drawn) [Example 80, 3-[(5-phenyl-1,3,4,-thiadiazole-2-yl)-thiomethyl]-7-[4-(1,4,5,6-tetrahydropyrimide-2-yl)-phenylacetamido]-Δ 3-cephem-4-carboxylic acid]
0.0625 to 0.078 (≈ 0.121 to 0.15 µM)	8 to 15.6 (≈ 0.0154 to 0.0301 µM)	0.5 to 1.25 (≈ 0.964 to 2.41 µM)	10 to 50 (≈ 19.3 to 96.4 µM)	CCc1nnc(SCC2=C(C(=O)O)N3C(=O)C(NC(=O)Cc4ccc(C(=N)N)cc4)C3SC2)s1 (stereo not drawn) [Example 122, 3-[(5-ethyl-1,3,4-thiadiazole-2-yl)-thiomethyl]-7-(4-amidino-phenylacetamido)-Δ3-cephem-4-carboxylic acid]
0.0625 to 0.078 (≈ 0.106 to 0.132 µM)	0.391 to 7.8 (≈ 0.000664 to 0.0132 µM)	0.156 to 0.391 (≈ 0.265 to 0.664 µM)	10 to 50 (≈ 17 to 84.9 µM)	CCCCCCNC(=N)c1ccc(OCC(=O)NC2C(=O)N3C(C(=O)O)=C(CSc4nnc(C)o4)CSC23)cc1 (stereo not drawn) [Example 32, 3-[(5-methyl-1,3,4-oxadiazole-2-yl)-thiomethyl]-7-[4-(N-n-hexylamidino)-phenoxyacetamido]-Δ 3-cephem-4-carboxylic acid]
0.0625 to 0.078 (≈ 0.108 to 0.135 µM)	0.391 to 7.8 (≈ 0.000678 to 0.0135 µM)	0.5 to 1.25 (≈ 0.867 to 2.17 µM)	10 to 50 (≈ 17.3 to 86.7 µM)	O=C(Cc1ccc(C2=NCCN2)cc1)NC1C(=O)N2C(C(=O)O)=C(CSc3nnc(-c4ccccc4)o3)CSC12 (stereo not drawn) [Example 116, 3-[(5-phenyl-1,3,4-oxadiazole-2-yl)-thiomethyl]-7-[4-(imidazoline-2-yl)-phenylacetamido]-Δ3-cephem-4-carboxylic acid]
0.0625 to 0.078 (≈ 0.103 to 0.129 µM)	0.391 to 7.8 (≈ 0.000647 to 0.0129 µM)	0.156 to 0.391 (≈ 0.258 to 0.647 µM)	0.196 to 6.25 (≈ 0.324 to 10.3 µM)	CCCCCCNC(=N)c1ccc(OCC(=O)NC2C(=O)N3C(C(=O)O)=C(CSc4nnc(C)s4)CSC23)cc1 (stereo not drawn) [Example 33, 3-[(5-methyl-1,3,4-thiadiazole-2-yl)-thiomethyl]-7-[4-(N-n-hexylamidion)-phenoxyacetamido]-Δ 3-cephem-4-carboxylic acid]
0.0625 to 0.078 (≈ 0.124 to 0.155 µM)	8 to 15.6 (≈ 0.0159 to 0.0309 µM)	0.156 to 0.391 (≈ 0.309 to 0.775 µM)	10 to 50 (≈ 19.8 to 99.1 µM)	Cc1nnc(SCC2=C(C(=O)O)N3C(=O)C(NC(=O)COc4ccc(C(=N)N)cc4)C3SC2)o1 (stereo not drawn) [Example 38, 3-[(5-methyl-1,3,4-oxadiazole-2-yl)-thiomethyl]-7-(4-amidinophenoxy-acetamido)-Δ 3-cephem-4-carboxylic acid]
0.0625 to 0.078 (≈ 0.109 to 0.136 µM)	0.391 to 7.8 (≈ 0.000684 to 0.0136 µM)	0.156 to 0.391 (≈ 0.273 to 0.684 µM)	0.196 to 6.25 (≈ 0.343 to 10.9 µM)	CCCCc1csc(SCC2=C(C(=O)O)N3C(=O)C(NC(=O)Cc4ccc(C5=NCCN5)cc4)C3SC2)n1 (stereo not drawn) [Example 113]
0.0625 to 0.078 (≈ 0.108 to 0.135 µM)	0.391 to 7.8 (≈ 0.000674 to 0.0135 µM)	0.156 to 0.391 (≈ 0.269 to 0.674 µM)	10 to 50 (≈ 17.2 to 86.2 µM)	O=C(Cc1ccc(C2=NCCCN2)cc1)NC1C(=O)N2C(C(=O)O)=C(CSc3nc4ccccc4s3)CSC12 (stereo not drawn) [Example 85, 3-[benzothiazole-2-yl-thiomethyl]-7-[4-(1,4,5,6-tetrahydropyrimide-2-yl)-phenylacetamido]-Δ 3-cephem-4-carboxylic acid]
0.0625 to 0.078 (≈ 0.125 to 0.156 µM)	0.391 to 7.8 (≈ 0.000783 to 0.0156 µM)	0.5 to 1.25 (≈ 1 to 2.5 µM)	10 to 50 (≈ 20 to 100 µM)	N=C(N)c1ccc(OCC(=O)NC2C(=O)N3C(C(=O)O)=C(CSc4ccccn4)CSC23)cc1 (stereo not drawn) [Example 29, 3-[(pyride-2-yl)-thiomethyl]-7-(4-amidinophenoxyacetamido)-Δ 3-cephem-4-carboxylic acid]
0.0625 to 0.078 (≈ 0.111 to 0.139 µM)	8 to 15.6 (≈ 0.0143 to 0.0278 µM)	0.5 to 1.25 (≈ 0.892 to 2.23 µM)	0.196 to 6.25 (≈ 0.35 to 11.1 µM)	Cc1nnc(SCC2=C(C(=O)O)N3C(=O)C(NC(=O)COc4ccc(C5=NCCCN5)cc4)C3SC2)s1 (stereo not drawn) [Example 34, 3-[(5-methyl-1,3,4-thiadizole-2-yl)-thiomethyl]-7-[4-(1,4,5,6-tetrahydropyromide-2-yl)-phenoxyacetamido]-Δ 3-cephem-4-carboxylic acid]
